Test results taken from US3980794A, “Method for promoting growth of poultry with 3-(5-nitro-2-imidazolyl)pyrazoles” (Eli Lilly and Company, priority 1975, dated 1976).
≈ marks a conversion by molar mass, not a printed value. Read-outs that look alike come from different tables or passages of the source.

How the values were obtained:
Type in all cases: cell-based
[1] = system: Clostridium perfringens 81; assay: microbe, parasite or virus in culture; settings: Clostridium perfringens, 81, 24 h, read-out: 24 Hr. Minimum Inhibitory Concentration
[2] = system: Peptostreptococcus intermedius 1264; assay: Susceptibility of anaerobic bacteria, agar dilution; settings: 24 h; Peptostreptococcus intermedius 1264; read-out: 24 Hr. Minimum Inhibitory Concentration
[3] = system: Bacteroides fragilis sp. fragilis 1877; assay: as above; settings: 24 h, read-out: 24 Hr. Minimum Inhibitory Concentration
[4] = system: Propionibacterium acnes 44; assay: as above; settings: Cutibacterium acnes, 24 h; Propionibacterium acnes 44; read-out: 24 Hr. Minimum Inhibitory Concentration
[5] = system: Propionibacterium acnes 79; assay: as above; settings: read-out: 24 Hr. Minimum Inhibitory Concentration
[6] = system: Veillonella alcalescens 1; assay: as above; settings: read-out: 24 Hr. Minimum Inhibitory Concentration
[7] = system: Fusobacterium necrophorum 13859; assay: as above; settings: read-out: 24 Hr. Minimum Inhibitory Concentration
[8] = system: Bacteroides fragilis sp. fragilis 1936B; assay: as above; settings: 24 h; Bacteroides fragilis sp. fragilis 1936B; read-out: 24 Hr. Minimum Inhibitory Concentration
Actinomyces bovis 13684 = assay: as above; settings: read-out: 24 Hr. Minimum Inhibitory Concentration
Clostridium ramosum 1313 = assay: as above; settings: read-out: 24 Hr. Minimum Inhibitory Concentration
[9] = system: Eubacterium aerofaciens 1235; assay: as above; settings: read-out: 24 Hr. Minimum Inhibitory Concentration
[10] = system: Bacteroides fragilis sp. thetaiotaomicron 1438; assay: as above; settings: 24 h, read-out: 24 Hr. Minimum Inhibitory Concentration
[11] = system: Bacteroides fragilis sp. vulgatus 1563; assay: as above; settings: 24 h, read-out: 24 Hr. Minimum Inhibitory Concentration
[12] = system: Fusobacterium symbiosum 1470; assay: as above; settings: read-out: 24 Hr. Minimum Inhibitory Concentration
[13] = system: Clostridium septicum 1128; assay: as above; settings: 24 h, read-out: 24 Hr. Minimum Inhibitory Concentration
Procedure: (§1) The susceptibility of anaerobic bacteria, both gram positive and gram negative, to a representative number of the novel compounds of this application was determined using the agar dilution method. The bacteria used were isolated from patients hospitalized at the Indiana University Medical Center. The isolates were identified in the anaerobe laboratory of the Medical Center by the criteria established by Dowell et al., Laboratory Methods in Anaerobic Bacteriology. Public Health Serv. Publ. No. 1803 (1968) [Center for Disease Control, Atlanta, Ga.]; and by Smith et al., The Pathogenic Anaerobic Bacteria, pages 96-136 (1968) [Charles C. Thomas, Publisher, Springfield, Ill.]. All the organisms were maintained in chopped meat glucose medium (Scott Labs) at room temperature.
(§2) The method used for the agar dilution tests was based on the studies of Sutter et al., Antimicrob. Ag. Chemother. 3, 188-193 (1973). The strains of anaerobic bacteria were grown in 16 × 120 mm. tubes for 16 to 18 hours in Thioglycolate medium without indicator--135C (Becton, Dickinson and Co.), to which was added 5 mcg. of hemin per milliliter prior to autoclaving, plus 1 mg. of sodium bicarbonate and 0.1 mcg. of filter-sterilized menadione per milliliter after autoclaving. The growth tubes for the bacteria Veillonella alcalescens were additionally supplemented with 5 mg. of sodium lactate per milliliter. The strains were adjusted to the turbidity of the No. 1 McFarland standard in Thioglycolate medium without indicator--135C containing an additional 0.13 percent Bacto-agar (Difco). Each strain was then applied to the surface of the petri plate (100 mm. × 15 mm.) by means of a replicator.
(§3) For the agar dilution studies, two-fold dilutions of the test compounds were prepared in deionized water to which was then added laked sheep blood and filter-sterilized menadione so the concentrations after the agar dilution were 5 percent and 10 mcg./ml. respectively. An equal volume of double strength Brucella agar (Becton, Dickinson and Co.) was mixed with each dilution in a water bath held at 50°C. and then poured onto the petri plates.
(§4) All of the procedures were done inside a plastic glove box, except for the incubation of the growth tubes and the pouring of the plates. After the plates hardened, they were put inside the glove box for a minimum of two hours before they were inoculated. Generally, the glove box procedures of Aranki et al., Applied Microbiology 17, 568-576 (1969), were followed, but the following modifications were used. Dry materials were introduced into the glove box by evacuating the lock to 28 inches of mercury and filling once with nitrogen gas, followed by evacuating in the same manner and filling with an 80 percent nitrogen plus 10 percent CO2 plus 10 percent hydrogen gas mixture. Liquid media and agar plates were introduced into the glove box by evacuating the lock to 10 inches of mercury and filling with gas four times. The nitrogen gas was used to fill the lock for the first two cycles of evacuation, with the gas mixture described above used for the final two fillings.
(§5) All the plates were incubated at 37°C. in Gas Pak jars (Becton, Dickinson and Co.) containing palladium-coated alumina catalysts (reactivated after each use). The results of the agar dilution tests were read after about 24 hours of incubation. The minimum inhibitory concentration (MIC) was recorded as the lowest concentration of test compound at which there was no growth.
(§6) The results of these in vitro tests are recorded in Charts 11 and 12 which follow. The test compounds are identified in the same manner as in the previous experiments. The antibiotics cephalothin and erythromycin were also run simultaneously with the novel compounds of this application, for comparison purposes, and the results are included in Charts 11 and 12 below.

[14] = system: Clostridium septicum bovine; assay: as above; settings: 24 h, read-out: 24 Hr. Minimum Inhibitory Concentration
Procedure: as §1, §2, §3, §4, §5, §6

[15] = system: Clostridium innocuum 1373; assay: as above; settings: read-out: 24 Hr. Minimum Inhibitory Concentration
[16] = system: Bacteroides fragilis sp. vulgatus 1211; assay: as above; settings: 24 h, read-out: 24 Hr. Minimum Inhibitory Concentration
[17] = system: Peptococcus anaerobius 1428; assay: as above; settings: 24 h; Peptococcus anaerobius 1428; read-out: 24 Hr. Minimum Inhibitory Concentration
[18] = Bacteroides fragilis sp. fragilis 1877
[19] = Cutibacterium acnes, 24 h, Propionibacterium acnes 79
[20] = Veillonella parvula, 24 h, Veillonella alcalescens 1
[21] = 24 h, Fusobacterium necrophorum 13859
[22] = Thomasclavelia ramosa, 24 h, Clostridium ramosum 1313
[23] = Collinsella aerofaciens, 24 h, Eubacterium aerofaciens 1235
[24] = Bacteroides fragilis sp. thetaiotaomicron 1438
[25] = Bacteroides fragilis sp. vulgatus 1563
[26] = 24 h, Fusobacterium symbiosum 1470
[27] = 24 h, Clostridium innocuum 1373
[28] = Bacteroides fragilis sp. vulgatus 1211
[29] = Fusobacterium necrophorum, 13859, 24 h
[30] = Collinsella aerofaciens, 1235, 24 h
[31] = [Clostridium] innocuum, 1373, 24 h

SMILES	MIC [1] [µg/mL]	MIC [2] [µg/mL]	MIC [3, 18] [µg/mL]	MIC [4] [µg/mL]	MIC [5, 19] [µg/mL]	MIC [6, 20] [µg/mL]	MIC [7, 21] [µg/mL]	MIC [8] [µg/mL]	MIC (Actinomyces bovis 13684; 24 h, Actinomyces bovis 13684) [µg/mL]	MIC (Clostridium ramosum 1313; [22]) [µg/mL]	MIC [9, 23] [µg/mL]	MIC [10, 24] [µg/mL]	MIC [11, 25] [µg/mL]	MIC [12, 26] [µg/mL]	MIC [13] [µg/mL]	MIC [14] [µg/mL]	MIC [15, 27] [µg/mL]	MIC [16, 28] [µg/mL]	MIC [17] [µg/mL]	MIC ([3]; Bacteroides fragilis) [µg/mL]	other results
CCNc1cc(-c2ncc([N+](=O)[O-])n2C)nn1C [Compound 11A, 5-(ethylamino)-1-methyl-3-(1-methyl-5-nitro-2-imidazolyl)pyrazole]	0.03 (≈ 0.12 µM)	8 (≈ 32 µM)	0.06 (≈ 0.24 µM)	8 (≈ 32 µM)	< 0.03	1 (≈ 4 µM)	< 0.03	2 (≈ 7.99 µM)	2 (≈ 7.99 µM)	0.5 (≈ 2 µM)	< 0.03	0.06 (≈ 0.24 µM)	< 0.03	< 0.03	0.06 (≈ 0.24 µM)	0.06 (≈ 0.24 µM)	0.125 (≈ 0.499 µM)	< 0.03	1 (≈ 4 µM)	–	–
Cn1c([N+](=O)[O-])cnc1-c1nn(CCCl)c(N)c1C#N [Compound 15, 5-Amino-1-(2-chloroethyl)-3-(1-methyl-5-nitro-2-imidazolyl)pyrazole-4-carbonitrile]	< 0.125	8 (≈ 27.1 µM)	–	> 32	–	–	–	0.5 (≈ 1.69 µM)	1 (≈ 3.38 µM)	0.5 (≈ 1.69 µM)	–	–	–	–	0.25 (≈ 0.845 µM)	< 0.125	–	–	1 (≈ 3.38 µM)	< 0.125	MIC ([5]; Cutibacterium acnes, 79, 24 h): < 0.125 µg/mL; MIC ([6]; Veillonella parvula, 1, 24 h): < 0.125 µg/mL; MIC [7, 29]: < 0.125 µg/mL; MIC [9, 30]: < 0.125 µg/mL; MIC ([10]; Bacteroides fragilis): < 0.125 µg/mL; MIC ([11]; Bacteroides fragilis): < 0.125 µg/mL; MIC ([12]; Fusobacterium, 1470, 24 h): < 0.125 µg/mL; MIC [15, 31]: < 0.125 µg/mL; MIC ([16]; Bacteroides fragilis): < 0.125 µg/mL
CCn1nc(-c2ncc([N+](=O)[O-])n2C)c(C#N)c1N [Compound 16, 5-Amino-1-ethyl-3-(1-methyl-5-nitro-2-imidazolyl)pyrazole-4-carbonitrile]	< 0.125	2 (≈ 7.66 µM)	–	> 32	–	–	–	0.25 (≈ 0.957 µM)	–	–	–	–	–	–	< 0.125	< 0.125	–	–	1 (≈ 3.83 µM)	< 0.125	MIC ([5]; Cutibacterium acnes, 79, 24 h): < 0.125 µg/mL; MIC ([6]; Veillonella parvula, 1, 24 h): < 0.125 µg/mL; MIC [7, 29]: < 0.125 µg/mL; MIC (Actinomyces bovis 13684; Actinomyces bovis, 13684, 24 h): < 0.125 µg/mL; MIC (Clostridium ramosum 1313; Thomasclavelia ramosa, 1313, 24 h): < 0.125 µg/mL; MIC [9, 30]: < 0.125 µg/mL; MIC ([10]; Bacteroides fragilis): < 0.125 µg/mL; MIC ([11]; Bacteroides fragilis): < 0.125 µg/mL; MIC ([12]; Fusobacterium, 1470, 24 h): < 0.125 µg/mL; MIC [15, 31]: < 0.125 µg/mL; MIC ([16]; Bacteroides fragilis): < 0.125 µg/mL
CN(C)S(=O)(=O)Nc1c(C#N)c(-c2ncc([N+](=O)[O-])n2C)nn1C [Compound 20]	8 (≈ 22.6 µM)	32 (≈ 90.3 µM)	4 (≈ 11.3 µM)	> 32	1 (≈ 2.82 µM)	1 (≈ 2.82 µM)	1 (≈ 2.82 µM)	2 (≈ 5.64 µM)	2 (≈ 5.64 µM)	4 (≈ 11.3 µM)	8 (≈ 22.6 µM)	4 (≈ 11.3 µM)	1 (≈ 2.82 µM)	4 (≈ 11.3 µM)	8 (≈ 22.6 µM)	8 (≈ 22.6 µM)	16 (≈ 45.2 µM)	2 (≈ 5.64 µM)	1 (≈ 2.82 µM)	–	–
